Key:
[1] = tested on: Ehrlich ascites tumor cells; test: hyperlipidemia (cachexia marker) in Ehrlich ascites tumor bearing mice; format: in vivo, male ddY-strain mice; settings: for Body weight / Serum neutral Serum neutral fat: day 8, mean±SD, n=8
From the text: In these experiments, serum neutral fat was selected as an indication of cachexia to serve as an auxiliary marker for knowing dynamics of TNFα that is difficult to quantitize, because it is difficult to exactly measure blood TNFα and it is easier to measure serum neutral fat than blood TNFα. Forty male ddY-strain mice at 5 weeks of age were randomly divided into 5 groups (n = 8), among which 4 groups were intraperitoneally implanted with 2 x 10^6 Ehrlich ascites tumor cells. The group implanted with no tumor cells was a healthy control group. From 24 hours after implantation of tumor cells, 3 groups intraperitoneally received 100-400 mg/kg of compound 1, while the other group received a solvent 0.1% Tween 80 (0.2 ml) alone free from compound 1. On day 8 after implantation of tumor cells, blood was collected from the heart of tumor bearing mice to assay neutral fat in separated serum and detect blood TNFα by immunoelectrophoresis.

PPARγ = test: transfer (reporter) gene activity assay in transfected COS-1 cells, PPARγ; format: cell-based; settings: luciferase reporter, 20 hours
Protocol: Transfection was performed by a standard procedure using a LipofectAMINE reagent from Life Technologies. A 35 mm Petri dish containing 1 x 10^5 cells dispersed in 2 ml of Dulbecco's minimum medium (DMEM) containing 10% fetal bovine serum was incubated in a CO2 incubator for 17 hours. Then, the medium was removed and cells adhered to the Petri dish were washed with phosphate buffered physiological saline (PBS), after which transfection was performed using a LipofectAMINE reagent. That is, […] of a minimum serum medium OptiMEM (Life Technologies) containing […] of a plasmid bearing the luciferase gene whose expression is controlled by PPAR-responsive elements, […] of a PPAR expression plasmid and 2 mg of a plasmid bearing the β-galactosidase gene for monitoring transfection efficiency was preliminarily mixed with […] of OptiMEM containing 50 ml of LipofectAMINE dissolved therein, and the mixed solution was maintained at room temperature for 15 minutes. A Petri dish containing a mixture of 100 ml of this mixed solution and 400 ml of OptiMEM was incubated in a CO2 incubator at 37°C for 3 hours. The transfection medium was aspirated off from the Petri dish, which was supplied with DMEM containing 10% serum treated with activated carbon and a test compound and incubated at 37°C for 20 hours. […] The medium also contains a solvent for test compounds dimethyl sulfoxide (final concentration 0.1%).
After the medium in the Petri dish was aspirated off, […] of a lysing solution for cultured cells (25 mM Tris phosphate buffer (pH 7.8), 2 mM 1,2-diaminocyclo-hexane-N, N,N',N'-tetraacetate, 10% glycerol, 1% Triton X-100) was added and cells were scraped with rubber policeman. Cells were completely disrupted by freezing and thawing and then centrifuged at 4°C (15,000 rpm, 2 min), and the supernatants were used as test samples. […] The β-galactosidase for monitoring transfection efficiency was measured for fluorescence in a luminometer using Luminescent β-galactosidase detection kit II (Clontech). […]

[2] = tested on: streptozotocin-induced diabetes; test: streptozotocin-induced diabetes in rats; format: in vivo, male Wistar rats; settings: 100 mg/kg orally once daily; for Body weight / Drinking water intake / Feed intake / Urinary sugar excretion / Urine volume: n=8
Protocol: Streptozotocin (50 mg/kg) was injected into the tail vein of male Wistar rats weighing about 250 g to prepare an insulin deficiency diabetes model. Compound 1 suspended in a gum arabic solution was orally administered at 100 mg/kg once daily, starting immediately after administration of streptozotocin. The animals were housed in a urine-collecting cage for 24 hours on days 7 and 14 to collect urine for 24 hours. […] However, weight gain was 80 g/week in the healthy group in contrast with only 18 g/week in the diabetes control group. […] This means that administration of compound 1 improved metabolism to greatly reduce urinary sugar excretion.

DOCA hypertension rats = settings: orally administered to DOCA hypertension rats; cited from earlier work
serum lipid = settings: cited from earlier work
NOD mice = test: prevention of onset of type I diabetes in NOD mice; format: in vivo, female NOD mice; settings: 10 animals
Protocol: Each group consists of 10 animals.
The mice were bred for 24 weeks, during which they were tested for urinary sugar excretion using an urinary sugar detection tape on Monday and Friday (Fig. 3).

rat hypertension model = test: prevention of aneurysms in DOCA/saline one-kidney rat hypertension model; format: in vivo, male Wistar rats
Protocol: Compounds of the present invention show the effect of preventing periarteritis nodosa and aneurysms. In order to evaluate the effect of preventing aneurysms, a quantitatively assayable rat hypertension model was used so that aneurysms formed in mesenteric arteries were measured and statistically processed to determine the effect. The membrane was removed with forceps from isolated mesenterium and the remaining arterioles were fixed with formalin and then fat-stained. The number of arterioles and the number of aneurysms were counted in triplicate to calculate the average number of aneurysms per arteriole. As a hypertension model, rats with one kidney extracted to decrease renal function were given 0.9% saline as drinking water having a slightly higher osmosis than plasma and subcutaneously received 10 mg/kg of a mineral corticoid deoxycorticosteron acetate (DOCA) weekly. The left kidney was extracted from male Wistar rats (12 animals) under anesthetization. The rats deprived of kidney were randomly divided into two groups (n = 6) after a period of recovery for a week. One of the two groups was a control group and the other received compound 1. […] The experimental period was 7 weeks, during which feed intake, drinking water intake, urine volume, body weight and blood pressure were measured every 3 days from the start of experiments. […]

[3] = tested on: hereditary obese and diabetic mice C57BL/ksj db/db; test: polydipsia/polyuria and urinary sugar excretion in db/db mice fed compound in diet; format: in vivo
Protocol: Ten male db/db mice at 30-32 weeks of age were randomly divided into two groups (n = 5), ie, a control group and compound 17 group. The animals were allowed free access to diet and drinking water. The diet was mouse II rat standard food CE-2 powder from Clea Japan, which was pelletized after a solution of compound 17 in acetone was applied and acetone was evaporated by air-drying. Compound 17 was added in an amount of 0.1% of the diet. A control diet was also pelletized after the same amount of acetone was applied.
Both groups received the control diet for first 7 days to test feed intake, urine volume, urinary sugar level and urinary sugar excretion level. During the following 5 days, the treatment group received the diet containing 0.1% compound 17. The treatment group was bred with the control diet again for further 4 days and then bred with the diet containing 0.1% compound 17 again for 5 days on […]. As db/db mice individually bred in metabolic cages show wide variation in feed and drinking water intakes, 5 animals were housed in a rat metabolic cage and the values obtained in each cage were divided by 5 and shown in Fig. 1. […] Urinary sugar excretion level is 50% or less as compared with the control period even 24 hours after administration is stopped, showing that compound 17 has a carry-over effect.

db/db mice = test: blood glucose and urinary sugar excretion in db/db mice; format: in vivo; settings: 60 mg/kg orally once daily, Fig. 2
Protocol: Blood was collected from the tail vein of ten db/db mice at 12 weeks of age 2 days before the start of experiments, and the animals were divided into two groups each having an average blood glucose level of 720-740 mg/dl. One group was a control group, while the other group orally received compound 25 at 60 mg/kg once daily. […] SA solid diamond denotes the control group, solid triangle denotes the: group treated with compound 1 at 25 mg/kg, open square denotes the: group treated with compound 1 at 50 mg/kg, and cross denotes the: group treated with compound 25 at 50 mg mg/kg. Each group consists of 10 animals.
Blood was collected from the tail vein of ten db/db mice at 12 weeks of age, and the animals were divided into two groups, ie, a control group and a compound 25 group, each having an average blood glucose level of about 700 mg/dl and housed in urine-collecting cages. A small amount of blood was collected from the tail vein on days 1, 2, 3, 5, 7 and 10 from the start of experiments to determine blood glucose. Urine was collected for 24 hours at the same intervals to determine urinary sugar excretion level by the oxygen method.

[4] = Dose 100 mg/kg intraperitoneally
[5] = Dose 200 mg/kg intraperitoneally
[6] = Dose 400 mg/kg intraperitoneally
[7] = groups treated with 100-400 mg/kg
[8] = 50 mg/kg intraperitoneally twice weekly
[9] = diet containing 0.1% compound, Fig. 1

For C/C(=C\Cc1c(O)c(Cl)c(C)c(C=O)c1O)CC/C=C(\C)C1CC(=O)C(C)(C)O1 (centres unmarked) [Compound 1, Ascofuranone], the Body weight [1, 4] was 38.0±1.0 g/mouse, the “Serum neutral Serum neutral fat” value [1, 4] was 258.2 ± 53.2 mg/dL and the Body weight [1, 5] was 36.7±0.7 g/mouse. The “Serum neutral Serum neutral fat” value [1, 5] was 185.1 ± 26.2 mg/dL, the Body weight [1, 6] was 31.3±1.1 g/mouse and the “Serum neutral Serum neutral fat” value [1, 6] was 99.1 ± 18.3 mg/dL. For the same compound, the “blood TNFα” value [1, 7] was “downward tendency”, the blood glucose level [1, 7] was “significant increase” and the “increase of serum neutral fat” value [1, 7] was “dose-dependently suppressed”. For the same compound, the “Activation of receptors PPARγ” value (PPARγ) was “+++ (Activation peak appears at 10^-6-10^-5M.)”, the weight gain [2] was 30 g/week and the Body weight ([2]; Day 7) was 307.7±4.8 g/rat. It also gave a Drinking water intake ([2]; Day 7) of 99.9±13.0 ml/rat/day, a Feed intake ([2]; Day 7) of 32.9±1.9 g/rat and a Urinary sugar excretion ([2]; Day 7) of 5.39±0.55 g/rat/day. For the same compound, the Urine volume ([2]; Day 7) was 74.6±6.4 ml/rat/day, the Body weight ([2]; Day 14) was 318.3±6.8 g/rat and the Drinking water intake ([2]; Day 14) was 106.9±18.0 ml/rat/day. For the same compound, the Feed intake ([2]; Day 14) was 32.6±2.9 g/rat, the Urinary sugar excretion ([2]; Day 14) was 5.78±1.09 g/rat/day and the Urine volume ([2]; Day 14) was 79.7±12.5 ml/rat/day. The “drinking water intake as compared with the diabetes control group” value ([2]; day 7) was 41.4%, the “feed intake decrease as compared with the diabetes control group” value ([2]; day 7) was 14.3% and the “drinking water intake as compared with the diabetes control group” value ([2]; day 14) was 43.6%. For the same compound, the “feed intake decrease as compared with the diabetes control group” value ([2]; day 14) was 23.3%, the “indications of cardiovascular diseases” value (DOCA hypertension rats) was “improves indications of cardiovascular diseases” and the pressure rise (DOCA hypertension rats) was “does not suppress pressure rise”. For the same compound, the toxicity (serum lipid; orally administered to rodents) was “very low toxicity”, the “effect on serum lipid” value (serum lipid; orally administered, rats bred with a standard diet or a high-fat diet) was “lowering serum lipid” and the “incidence of type I diabetes at week 24” value (NOD mice; 25 mg/kg intraperitoneally twice weekly) was 30%. The “incidence of type I diabetes at week 24” value (NOD mice; [8]) was 10%, the “effect of suppressing pressure rise (blood pressure)” value (rat hypertension model; orally 100 mg/kg from week 3, compared with control group) was “any significant effect of suppressing pressure rise was not observed” and the “aneurysms (mean ± SE) per mesenteric artery” value (rat hypertension model; orally 100 mg/kg from week 3, dissected at week 7, n = 6) was 0.51 ± 0.37 aneurysms per mesenteric arter.

In the case of COc1c(C=O)c(C)c(Cl)c(O)c1C/C=C(\C)CC/C=C(\C)C1CC(=O)C(C)(C)O1 (centres unmarked) [Compound 7, 2-O-methyl AF], the “Activation of receptors PPARγ” value (PPARγ) is reported as “+++ (Activation peak appears at 10^-6-10^-5M.)”.

With COc1c(Cl)c(C)c(C=O)c(O)c1C/C=C(C)/C=C/[C@@]1(C)[C@H](C)CCC(=O)[C@@H]1C [Compound 17, 4-O-MeAS] the “Urinary sugar excretion level as compared with the control period” value ([3]; 24 hours after administration is stopped, 0.1% in diet) was ≤ 50%, the Urine volume [3, 9] was “sharply decrease” and the “urinary sugar excretion level” value [3, 9] was “sharply decrease”. For the same compound, the urinary sugar level [3, 9] was “sharply decrease”.

For COc1c(C=O)c(C)c(Cl)c(O)c1C/C=C(C)/C=C/C1(C)C(C)CCC(=O)C1C (centres unmarked) [Compound 21, 2-O-methylascochlorin], the “Activation of receptors PPARγ” value (PPARγ) was “++ (Activation peak appears at 10^-5-10^-4M.)”.

For CC(/C=C/C1(C)C(C)CCC(=O)C1C)=C\Cc1c(O)c(C=O)c(C)c(Cl)c1OCC(=O)O (centres unmarked) [Compound 25], the “Activation of receptors PPARγ” value (PPARγ) was “+++ (Activation peak appears at 10^-6-10^-5M.)”, the blood glucose loss (db/db mice; day 7) was “over 30%” and the urinary sugar (db/db mice; day following the start of administration) was “decreased to a half”. For the same compound, the blood glucose (db/db mice; from day 3 of administration) was “significantly decreased”, the “urinary sugar excretion level loss” value (db/db mice; on and after day 3) was “over 90%” and the “incidence of type I diabetes at week 24” value (NOD mice; [8]) was 10%.

For CC(/C=C/C1(C)C(C)CCC(=O)C1C)=C\Cc1c(O)c(C=O)c(C)c(Cl)c1OC(=O)c1cccnc1 (centres unmarked) [Compound 26], the “Activation of receptors PPARγ” value (PPARγ) was “++ (Activation peak appears at 10^-5-10^-4M.)”.

With CC(/C=C/C1(C)C(C)CCC(=O)C1C)=C\Cc1c(O)c(C=O)c(C)c(Cl)c1OC(=O)CCCC(=O)O (centres unmarked) [Compound 29, 4-O-(4-Carboxybutanoyl)ascochlorin] the “Activation of receptors PPARγ” value (PPARγ) was “+++ (Activation peak appears at 10^-6-10^-5M.)”.

Source: patent publication EP1176134A1, “LIGANDS OF NUCLEAR RECEPTORS PPAR'S” (Nuclear Receptor Research Limited, priority 1999, dated 2000)
